Measurements published in BindingDB's records for patent US10376513 (Incyte Holdings Corporation, 2019).

Biological target: T1, Phosphatidylinositol 4,5-bisphosphate 3-kinase catalytic subunit delta isoform (Homo sapiens, UniProt O00329)
T1 sequence (O00329 whole entry): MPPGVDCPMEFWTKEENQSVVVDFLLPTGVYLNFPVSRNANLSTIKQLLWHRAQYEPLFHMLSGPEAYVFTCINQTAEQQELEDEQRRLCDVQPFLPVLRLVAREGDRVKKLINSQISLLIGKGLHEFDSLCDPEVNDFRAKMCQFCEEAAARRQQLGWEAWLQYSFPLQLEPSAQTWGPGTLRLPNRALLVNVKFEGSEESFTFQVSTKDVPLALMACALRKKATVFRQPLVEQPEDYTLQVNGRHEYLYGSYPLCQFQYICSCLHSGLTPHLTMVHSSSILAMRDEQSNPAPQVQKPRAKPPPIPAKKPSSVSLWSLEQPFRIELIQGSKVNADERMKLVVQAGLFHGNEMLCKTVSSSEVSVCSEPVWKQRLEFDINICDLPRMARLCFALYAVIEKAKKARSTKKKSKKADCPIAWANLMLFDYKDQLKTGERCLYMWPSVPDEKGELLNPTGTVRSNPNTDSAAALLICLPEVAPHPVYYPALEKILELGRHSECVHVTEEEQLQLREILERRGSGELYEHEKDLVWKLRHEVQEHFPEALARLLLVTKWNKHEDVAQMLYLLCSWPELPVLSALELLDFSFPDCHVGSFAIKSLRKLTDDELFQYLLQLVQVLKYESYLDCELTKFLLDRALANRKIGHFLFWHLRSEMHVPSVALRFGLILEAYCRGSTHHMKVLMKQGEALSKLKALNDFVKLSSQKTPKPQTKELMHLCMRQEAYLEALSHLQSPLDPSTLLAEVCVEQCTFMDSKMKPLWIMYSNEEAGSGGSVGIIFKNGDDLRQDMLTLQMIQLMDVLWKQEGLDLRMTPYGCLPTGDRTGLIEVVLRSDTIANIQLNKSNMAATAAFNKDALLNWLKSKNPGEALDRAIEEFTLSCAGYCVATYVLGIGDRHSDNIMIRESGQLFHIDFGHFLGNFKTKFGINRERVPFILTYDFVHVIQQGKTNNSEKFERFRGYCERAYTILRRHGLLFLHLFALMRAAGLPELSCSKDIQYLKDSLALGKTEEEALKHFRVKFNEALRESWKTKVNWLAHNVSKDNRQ
Assay: PI3Kdelta Scintillation Proximity A3 Assay
Method: [γ-33P]ATP (10 mCi/mL) was purchased from Perkin-Elmer (Waltham, Mass.). […] PI3Kδ (p110δ/p85α) was purchased from Millipore (Bedford, Mass.). ATP, MgCl2, DTT, EDTA, MOPS and CHAPS were purchased from Sigma-Aldrich (St. Louis, Mo.). Wheat Germ Agglutinin (WGA) YSi SPA Scintillation Beads was purchased from GE healthcare life sciences (Piscataway, N.J.).The kinase reaction was conducted in polystyrene 384-well matrix white plate from Thermo Fisher Scientific in a final volume of 25 μL. Inhibitors were first diluted serially in DMSO and added to the plate wells before the addition of other reaction components. The final concentration of DMSO in the assay was 0.5%. The PI3K assays were carried out at room temperature in 20 mM MOPS, pH 6.7, 10 mM MgCl2, 5 mM DTT and CHAPS 0.03%. Reactions were initiated by the addition of ATP, the final reaction mixture consisted of 20 μM PIP2, 20 μM ATP, 0.2 μCi [γ-33P] ATP, 4 nM PI3Kδ. […] 25 mM EDTA, 400 μM ATP. The final concentration of SPA beads was 1.0 mg/mL. After the plate sealing, plates were shaken overnight at room temperature and centrifuged at 1800 rpm for 10 minutes, the radioactivity of the product was determined by scintillation counting on Topcount (Perkin-Elmer). IC50 determination was performed by fitting the curve of percent control activity versus the log of the inhibitor concentration using the GraphPad Prism 3.0 software.

Question: `COc1c(C(C)n2nc(C3C=NNC3)c3c(N)ncnc32)cc(Cl)c(C)c1C1CN(CC#N)C1` (stereo unspecified) [US10376513, Example 126] was tested. Which IC50 did it give?
Answer: < 10 nM
